biological target: T1, c-kit mutant D816V (Homo sapiens, UniProt P10721, D816V/DEL694-753); assay: c-Kit mutant D816V biochemical assay, AlphaScreen; details: c-kit D816V biochemical inhibitory activity; read-out: Biochemical activity (IC50 μM) Kit D816V
T1 construct: residues 551-934, kinase insertion domain residues 694-753 deleted; 6x-histidine (N); made in house; host or cells: E. coli Arctic Express (DE3) RIL (Stratagene)
Procedure: Compounds to be tested were dissolved in DMSO to a concentration of 20 mM. These were diluted 30 μl into 120 μl of DMSO (4 mM) and 1 μl was added to an assay plate. These were then serially diluted 1:3 (50 μl to 100 μl DMSO) for a total of 8 points. Plates were prepared such that each kinase reaction is 20 μl in 1× kinase buffer (25 mM HEPES, pH 7.2, 8 mM MgCl2, 2 mM MnCl2, 50 mM NaCl, 0.01% Brij, 1 mM DTT, 0.01% BSA), 5% DMSO and 10 μM ATP. […] After incubation of the kinase reaction for 30 minutes at room temperature, 5 μl of donor beads (Streptavidin coated beads (Perkin Elmer Life Science) final concentration 7.5 μg/ml) in stop buffer (25 mM Hepes pH 7.5, 100 mM EDTA, 0.01% BSA) was added, the sample was mixed and incubated for 20 minutes at room temperature before adding 5 μl of acceptor beads (PY20 coated beads (Perkin Elmer Life Science) final concentration 7.5 μg/ml) in stop buffer. The samples were incubated for 60 minutes at room temperature and the signal per well was read on EnVision reader. […] The signal vs. compound concentration was used to determine the IC50.
Cells were grown in Terrific Broth (TB) media to an OD600 of 0.6 at 37° C. at which temperature was reduced to 10° C., protein was induced with 1.0 mM IPTG for 18 hours and harvested by centrifugation at 8000×g for 20 minutes. Cells were re-suspended in 0.1M KPO4 pH 8.0, 250 mM NaCl, 10% Glycerol, 0.75% NP-40, 25 mM Imidazole, 5 mM BME with 0.2 mg/ml Lysosyme, 2.0 mM PMSF, 25 μg/ml DNAse I, incubated in ice for 30 minutes and lysed with a cell disruptor (MicroFluidics). The lysate was clarified by centrifugation at 20,000×g for 2 hours. The protein was captured with Talon resin (Clontech). Contaminating proteins were washed off with 25 mM Tris-HCl pH 8.3, 250 mM NaCl, 15% Glycerol, 1% Triton X-100, and protein eluted using 100 mM EDTA. The protein was further purified using Gel Filtration column 26/600 Superdex 200 (GE) in 50 mM Tris-HCl, pH 8.0, 250 mM NaCl, 15% Glycerol, 5 mM BME. The protein was aliquoted and flash-frozen in liquid Nitrogen.

T1 sequence (P10721 with tags, fused parts or gaps DEL694-753/D816V): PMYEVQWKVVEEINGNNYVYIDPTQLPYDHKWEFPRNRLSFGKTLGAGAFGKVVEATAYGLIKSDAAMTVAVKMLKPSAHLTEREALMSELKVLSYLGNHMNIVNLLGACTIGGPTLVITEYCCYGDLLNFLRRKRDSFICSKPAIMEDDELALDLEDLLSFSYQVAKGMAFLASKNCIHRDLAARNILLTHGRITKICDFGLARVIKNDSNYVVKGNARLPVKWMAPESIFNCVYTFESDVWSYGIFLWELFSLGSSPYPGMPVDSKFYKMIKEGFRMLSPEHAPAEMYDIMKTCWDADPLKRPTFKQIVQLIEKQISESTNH

C[C@H](NC(=O)N1CCN(c2ncnc3cc(Br)sc23)CC1)c1ccc(F)cc1 [P-0597, 4-(6-bromothieno[3,2-d]pyrimidin-4-yl)-N-[(1S)-1-(4-fluorophenyl)ethyl]piperazine-1-carboxamide] was tested. Which IC50 did it give?
Its IC50 is 1 to 10 µM.

How did the IC50 turn out when COc1ccc(CNC(=O)N2CCN(c3ncnc4[nH]c(-c5ccc(F)cc5)cc34)CC2)cn1 [P-0129, 4-[6-(4-fluorophenyl)-7H-pyrrolo[2,3-d]pyrimidin-4-yl]-N-[(6-methoxy-3-pyridyl)methyl]piperazine-1-carboxamide] was run?
The IC50 was 0.0001 to 1 µM.

Which IC50 does the source give for Cc1ccc(C(C)NC(=O)N2CCN(c3ncnc4cc(-c5ccc(F)cc5)sc34)CC2)s1 (stereo not drawn) [P-0703, 4-[6-(4-fluorophenyl)thieno[3,2-d]pyrimidin-4-yl]-N-[1-(5-methyl-2-thienyl)ethyl]piperazine-1-carboxamide] here?
Its IC50 is 0.0001 to 1 µM.

For Nc1ccc(-c2ncnc3[nH]c(-c4ccc(F)cc4F)cc23)c(F)c1 [P-0341, 4-[6-(2,4-difluorophenyl)-7H-pyrrolo[2,3-d]pyrimidin-4-yl]-3-fluoro-aniline], which IC50 is on record?
The IC50 was 0.0001 to 1 µM.

Which IC50 does the source give for O=C(NC(=O)N1CCN(c2ncnc3[nH]ccc23)CC1)c1ccccc1 [P-0174, N-benzoyl-4-(7H-pyrrolo[2,3-d]pyrimidin-4-yl)piperazine-1-carboxamide] here?
The IC50 was 10 to 200 µM.

How did the IC50 turn out when Cc1ccc(NC(=O)N2CCN(c3ncnc4[nH]c(-c5ccncc5)cc34)C[C@@H]2C)cn1 [P-0039, (2S)-2-methyl-N-(6-methyl-3-pyridyl)-4-[6-(4-pyridyl)-7H-pyrrolo[2,3-d]pyrimidin-4-yl]piperazine-1-carboxamide] was run?
The IC50 was 1 to 10 µM.

How did the IC50 turn out when O=C(Nc1ccc(OC(F)(F)F)cc1)NC1CCN(c2ncnc3[nH]ccc23)CC1 [P-0513, 1-[1-(7H-pyrrolo[2,3-d]pyrimidin-4-yl)-4-piperidyl]-3-[4-(trifluoromethoxy)phenyl]urea] was run?
The IC50 was 10 to 200 µM.

O=S(=O)(Nc1ccc(-c2ncnc3[nH]c(-c4ccc(F)cc4)cc23)cc1F)N1CCCC1 [P-0405, N-[2-fluoro-4-[6-(4-fluorophenyl)-7H-pyrrolo[2,3-d]pyrimidin-4-yl]phenyl]pyrrolidine-1-sulfonamide] was tested. Which IC50 did it give?
Its IC50 is 10 to 200 µM.

With Cc1nn(C)cc1-c1cc2ncnc(N3CC4CCC3CN4C(=O)N[C@H](C)c3ccc(F)cc3)c2s1 (stereo partly drawn) [P-0704, 5-[6-(1,3-dimethylpyrazol-4-yl)thieno[3,2-d]pyrimidin-4-yl]-N-[(1R)-1-(4-fluorophenyl)ethyl]-2,5-diazabicyclo[2.2.2]octane-2-carboxamide] as the compound, how does the IC50 read?
Its IC50 is 0.0001 to 1 µM.

For COc1ccc(S(=O)(=O)NC2CCN(c3ncnc4[nH]c(-c5cnn(C)c5)cc34)CC2)cc1 [P-0496, 4-methoxy-N-[1-[6-(1-methylpyrazol-4-yl)-7H-pyrrolo[2,3-d]pyrimidin-4-yl]-4-piperidyl]benzenesulfonamide], which IC50 is on record?
The IC50 was 0.0001 to 1 µM.

Which IC50 does the source give for O=C(Nc1ccc(F)c(Cl)c1)NC1CCN(c2ncnc3[nH]ccc23)CC1 [P-0512, 1-(3-chloro-4-fluoro-phenyl)-3-[1-(7H-pyrrolo[2,3-d]pyrimidin-4-yl)-4-piperidyl]urea] here?
Its IC50 is 10 to 200 µM.

O=S(=O)(Nc1ccc(F)cc1)c1ccc(-c2ncnc3[nH]c(-c4ccc(F)cc4)cc23)cc1 [P-0428, N-(4-fluorophenyl)-4-[6-(4-fluorophenyl)-7H-pyrrolo[2,3-d]pyrimidin-4-yl]benzenesulfonamide] was tested. Which IC50 did it give?
The IC50 was 0.0001 to 1 µM.

How did the IC50 turn out when C[C@H](NC(=O)N1CCN(c2ncnc3[nH]c(-c4ccncc4)cc23)C[C@@H]1C)c1ccc(F)cc1 [P-0049, (2S)-N-[(1S)-1-(4-fluorophenyl)ethyl]-2-methyl-4-[6-(4-pyridyl)-7H-pyrrolo[2,3-d]pyrimidin-4-yl]piperazine-1-carboxamide] was run?
Its IC50 is 0.0001 to 1 µM.

Which IC50 does the source give for COc1cccc(CNC(=O)N2CCN(c3ncnc4[nH]c(-c5ccc(F)cc5)cc34)CC2)n1 [P-0122, 4-[6-(4-fluorophenyl)-7H-pyrrolo[2,3-d]pyrimidin-4-yl]-N-[(6-methoxy-2-pyridyl)methyl]piperazine-1-carboxamide] here?
The IC50 was 1 to 10 µM.

C[C@H](NC(=O)N1CCN(c2ncnc3[nH]c(-c4ccc(F)cc4)cc23)CC1)c1cccc(F)c1 [P-0036, N-[(1S)-1-(3-fluorophenyl)ethyl]-4-[6-(4-fluorophenyl)-7H-pyrrolo[2,3-d]pyrimidin-4-yl]piperazine-1-carboxamide] was tested. Which IC50 did it give?
The IC50 was 0.0001 to 1 µM.

How did the IC50 turn out when NS(=O)(=O)c1ccc(-c2ncnc3[nH]c(-c4cnc(C5CC5)nc4)cc23)cc1 [P-0385, 4-[6-(2-cyclopropylpyrimidin-5-yl)-7H-pyrrolo[2,3-d]pyrimidin-4-yl]benzenesulfonamide] was run?
Its IC50 is 1 to 10 µM.

How did the IC50 turn out when O=C(NCCc1ccc(Cl)cc1)N1CCN(c2ncnc3[nH]c(-c4ccc(F)cc4)cc23)CC1 [P-0161, N-[2-(4-chlorophenyl)ethyl]-4-[6-(4-fluorophenyl)-7H-pyrrolo[2,3-d]pyrimidin-4-yl]piperazine-1-carboxamide] was run?
Its IC50 is 0.0001 to 1 µM.

With Cc1ccc(S(=O)(=O)Nc2cccc(-c3ncnc4[nH]c(-c5ccc(F)cc5)cc34)c2)cc1 [P-0435, N-[3-[6-(4-fluorophenyl)-7H-pyrrolo[2,3-d]pyrimidin-4-yl]phenyl]-4-methyl-benzenesulfonamide] as the compound, how does the IC50 read?
Its IC50 is 10 to 200 µM.

With O=S(=O)(Nc1cccc(-c2ncnc3[nH]c(-c4cnc(C5CC5)nc4)cc23)c1)C1CC1 [P-0383, N-[3-[6-(2-cyclopropylpyrimidin-5-yl)-7H-pyrrolo[2,3-d]pyrimidin-4-yl]phenyl]cyclopropanesulfonamide] as the compound, how does the IC50 read?
The IC50 was 10 to 200 µM.

C[C@H](NC(=O)N1CCN(c2ncnc3[nH]c(-c4ccc(C#N)cc4)cc23)CC1)c1ccc(F)cc1 [P-0696, 4-[6-(4-cyanophenyl)-7H-pyrrolo[2,3-d]pyrimidin-4-yl]-N-[(1S)-1-(4-fluorophenyl)ethyl]piperazine-1-carboxamide] was tested. Which IC50 did it give?
Its IC50 is 0.0001 to 1 µM.

How did the IC50 turn out when CC(=O)Nc1ccc(-c2ncnc3cc(-c4ccc(F)cc4)sc23)cc1 [P-0632, N-[4-[6-(4-fluorophenyl)thieno[3,2-d]pyrimidin-4-yl]phenyl]acetamide] was run?
Its IC50 is 10 to 200 µM.

With CCCc1ccc(S(=O)(=O)NC2CC=C(c3ncnc4[nH]c(C)cc34)CC2)cc1 (stereo not drawn) [P-0651, N-[4-(6-methyl-7H-pyrrolo[2,3-d]pyrimidin-4-yl)cyclohex-3-en-1-yl]-4-propyl-benzenesulfonamide] as the compound, how does the IC50 read?
Its IC50 is 0.0001 to 1 µM.

Which IC50 does the source give for COc1cc2ncnc(-c3ccc(NS(C)(=O)=O)c(F)c3)c2cc1OC [P-0272, N-[4-(6,7-dimethoxyquinazolin-4-yl)-2-fluoro-phenyl]methanesulfonamide] here?
The IC50 was 0.0001 to 1 µM.

With CC(C)(NC(=O)N1CCN(c2ncnc3cc(-c4ccc(F)cc4)sc23)CC1(C)C)c1ccccc1 [P-0678, 4-[6-(4-fluorophenyl)thieno[3,2-d]pyrimidin-4-yl]-2,2-dimethyl-N-(1-methyl-1-phenyl-ethyl)piperazine-1-carboxamide] as the compound, how does the IC50 read?
Its IC50 is 1 to 10 µM.

For CCNC(=O)N1CCN(c2ncnc3[nH]c(-c4ccc(F)cc4)cc23)CC1 [P-0088, N-ethyl-4-[6-(4-fluorophenyl)-7H-pyrrolo[2,3-d]pyrimidin-4-yl]piperazine-1-carboxamide], which IC50 is on record?
The IC50 was 1 to 10 µM.

For C[C@H]1CN(c2ncnc3[nH]c(-c4ccncc4)cc23)CCN1C(=O)NCc1cccc(Cl)c1 [P-0040, (2S)-N-[(3-chlorophenyl)methyl]-2-methyl-4-[6-(4-pyridyl)-7H-pyrrolo[2,3-d]pyrimidin-4-yl]piperazine-1-carboxamide], which IC50 is on record?
The IC50 was 0.0001 to 1 µM.

For Cn1cc(-c2cc3c(N4CCC(NS(=O)(=O)c5ccc(OC(F)(F)F)cc5)CC4)ncnc3[nH]2)cn1 [P-0497, N-[1-[6-(1-methylpyrazol-4-yl)-7H-pyrrolo[2,3-d]pyrimidin-4-yl]-4-piperidyl]-4-(trifluoromethoxy)benzenesulfonamide], which IC50 is on record?
Its IC50 is 1 to 10 µM.

How did the IC50 turn out when C[C@H](NC(=O)N1CCN(c2ncnc3cc(-c4ccc(F)cc4)sc23)CC1(C)C)c1cccc(F)c1 [P-0578, N-[(1S)-1-(3-fluorophenyl)ethyl]-4-[6-(4-fluorophenyl)thieno[3,2-d]pyrimidin-4-yl]-2,2-dimethyl-piperazine-1-carboxamide] was run?
The IC50 was 1 to 10 µM.

Which IC50 does the source give for O=C(Nc1ccc(C(F)(F)F)cc1)NC1CCN(c2ncnc3[nH]ccc23)CC1 [P-0514, 1-[1-(7H-pyrrolo[2,3-d]pyrimidin-4-yl)-4-piperidyl]-3-[4-(trifluoromethyl)phenyl]urea] here?
Its IC50 is 10 to 200 µM.

Which IC50 does the source give for O=C(NCCc1ccccc1)N1CCN(c2ncnc3[nH]c(-c4ccc(F)cc4)cc23)CC1 [P-0162, 4-[6-(4-fluorophenyl)-7H-pyrrolo[2,3-d]pyrimidin-4-yl]-N-phenethyl-piperazine-1-carboxamide] here?
Its IC50 is 10 to 200 µM.
